Data on two molecules can be found in patent US20220169598A1, “HALOGENATED PHENYLSULFONAMIDE HYDROXAMIC ACID COMPOUNDS, COMPOSITIONS AND USES THEREOF AS SELECTIVE HDAC6 INHIBITORS” (2681603 ONTARIO INC., priority 2019, published 2022).

One data set deals with T1, HDAC7 (Homo sapiens, UniProt Q8WUI4).
T1 sequence (Q8WUI4 1-952): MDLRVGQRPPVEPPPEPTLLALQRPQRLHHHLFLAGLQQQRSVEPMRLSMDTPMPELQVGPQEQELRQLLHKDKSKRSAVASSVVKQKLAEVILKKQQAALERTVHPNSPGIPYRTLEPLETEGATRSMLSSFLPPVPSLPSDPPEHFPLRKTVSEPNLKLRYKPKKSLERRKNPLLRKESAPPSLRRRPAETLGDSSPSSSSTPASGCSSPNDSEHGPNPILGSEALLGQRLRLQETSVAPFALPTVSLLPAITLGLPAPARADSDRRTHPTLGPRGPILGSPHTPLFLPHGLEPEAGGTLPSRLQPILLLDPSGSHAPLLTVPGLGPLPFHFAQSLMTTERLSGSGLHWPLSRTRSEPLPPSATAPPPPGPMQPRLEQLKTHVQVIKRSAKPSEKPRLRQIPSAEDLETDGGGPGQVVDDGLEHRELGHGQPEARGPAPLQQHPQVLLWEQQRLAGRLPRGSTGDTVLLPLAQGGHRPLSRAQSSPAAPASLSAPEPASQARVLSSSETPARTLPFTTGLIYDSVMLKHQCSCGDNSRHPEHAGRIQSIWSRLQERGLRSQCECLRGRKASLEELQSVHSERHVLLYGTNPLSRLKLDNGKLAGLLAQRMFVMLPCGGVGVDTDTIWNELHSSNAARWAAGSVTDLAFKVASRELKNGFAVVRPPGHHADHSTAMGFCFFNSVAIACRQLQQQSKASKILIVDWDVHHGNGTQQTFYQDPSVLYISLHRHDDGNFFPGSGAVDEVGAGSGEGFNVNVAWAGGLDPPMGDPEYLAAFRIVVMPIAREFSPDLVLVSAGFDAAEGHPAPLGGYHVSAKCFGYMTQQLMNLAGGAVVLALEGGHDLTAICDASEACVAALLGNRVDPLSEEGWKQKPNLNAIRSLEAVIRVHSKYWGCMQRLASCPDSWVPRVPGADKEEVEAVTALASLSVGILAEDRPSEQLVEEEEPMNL
As to the kind of experiment: in vitro activity-based HDAC assay. It counts as biochemical. Particulars: human HDAC isoform panel, Table 1.

The subject of the next data set is HeLa cells. Nature of the data set: Immunofluorescence analysis of α-tubulin and histone H3 acetylation. As to conditions: 6 h treatment. It counts as cell-based. The text has this: Similar analysis is shown for exemplary compound I-34 in FIG. 19.
For a further data set, the system named is MOLM-13. Nature of the data set: Cytotoxicity in cell lines. As to conditions: Homo sapiens, MOLM-13; Table 4; read-out: IC50 MOLM-13. It counts as cell-based. How it is done: (§1) The cytotoxicity of exemplary compounds of the application was tested in multiple cell lines including MV-4-11, MOLM-13, MCF-7, MRC9, K562 and MM.1S. The therapeutic index was evaluated by determining the toxicity of the exemplary compounds in healthy cell lines including fibroblasts and HUVEC.

The next data set has as its system MRC9. As to the kind of experiment: Cytotoxicity in cell lines. Particulars: Table 4. It counts as cell-based. The protocol: as §1
The next data set deals with K562. Nature of the data set: Cytotoxicity in cell lines. It counts as cell-based. Particulars: Homo sapiens, K562; Table 4; read-out: IC50 K562. How it is done:
as §1

The nature of data set [1]: Plasma stability by LC-MS. It counts as in vitro ADME. Particulars: mouse plasma. The protocol: The stability of select compounds of the application in plasma was assessed quantitatively through LC-MS and the results are shown in Table 6.
Another data set relates to panel of 97 kinases. Nature of the data set: Kinome screen. It counts as biochemical. Particulars: kinase screen.
In a further data set the target is T2, HDAC6 (Homo sapiens, UniProt Q9UBN7).
T2 sequence (Q9UBN7 1-1215): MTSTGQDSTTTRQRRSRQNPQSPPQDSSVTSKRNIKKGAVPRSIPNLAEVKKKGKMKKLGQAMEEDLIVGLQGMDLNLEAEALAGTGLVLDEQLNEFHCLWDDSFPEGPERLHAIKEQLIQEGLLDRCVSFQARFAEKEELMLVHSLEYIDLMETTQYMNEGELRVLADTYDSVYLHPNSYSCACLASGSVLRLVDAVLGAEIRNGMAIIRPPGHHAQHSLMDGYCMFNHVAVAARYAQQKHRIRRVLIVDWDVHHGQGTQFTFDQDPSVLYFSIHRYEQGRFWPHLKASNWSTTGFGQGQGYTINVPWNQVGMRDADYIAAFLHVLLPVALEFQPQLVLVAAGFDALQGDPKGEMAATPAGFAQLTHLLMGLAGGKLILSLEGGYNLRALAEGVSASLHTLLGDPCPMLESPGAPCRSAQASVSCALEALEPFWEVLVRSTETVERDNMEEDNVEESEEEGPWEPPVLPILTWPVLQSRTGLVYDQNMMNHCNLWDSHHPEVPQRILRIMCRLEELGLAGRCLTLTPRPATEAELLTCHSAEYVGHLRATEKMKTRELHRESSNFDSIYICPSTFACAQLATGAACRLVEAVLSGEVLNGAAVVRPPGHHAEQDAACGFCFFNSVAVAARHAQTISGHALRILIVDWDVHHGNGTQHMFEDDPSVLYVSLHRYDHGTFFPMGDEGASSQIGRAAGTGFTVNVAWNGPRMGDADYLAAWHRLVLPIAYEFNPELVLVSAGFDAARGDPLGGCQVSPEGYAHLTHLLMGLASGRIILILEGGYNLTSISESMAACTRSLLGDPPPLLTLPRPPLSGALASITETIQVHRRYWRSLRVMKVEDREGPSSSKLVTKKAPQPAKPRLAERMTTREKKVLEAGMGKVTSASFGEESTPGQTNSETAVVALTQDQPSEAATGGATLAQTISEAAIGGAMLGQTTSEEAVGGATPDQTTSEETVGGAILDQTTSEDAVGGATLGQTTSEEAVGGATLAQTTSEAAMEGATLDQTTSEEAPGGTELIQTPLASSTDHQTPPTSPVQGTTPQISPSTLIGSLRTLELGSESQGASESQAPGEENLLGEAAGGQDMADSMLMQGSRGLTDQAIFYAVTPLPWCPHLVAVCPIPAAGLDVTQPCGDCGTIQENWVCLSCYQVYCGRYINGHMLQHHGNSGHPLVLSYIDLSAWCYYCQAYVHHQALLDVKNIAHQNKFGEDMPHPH
As to the kind of experiment: Enzyme kinetic parameters, time-based experiments. It counts as biochemical. The protocol:
To determine the kinetic parameters for the formation and maintenance of the HDAC6:1-18 complex, several time-based experiments were performed, which are shown in Table 2.

As for `O=C(NO)c1ccc(CN(C2CC2)S(=O)(=O)c2cc(F)c(F)c(F)c2F)cc1` [Compound I-13, 4-((N-cyclopropyl-2,3,4,5-tetrafluorophenylsulfonamido)methyl)-N-hydroxybenzamide], the IC50 at HDAC7 was above 1000 nM; in the data set with MOLM-13, 2000 nM; in the data set on MRC9, above 50000 nM; in the data set on K562 it was 7400 nM. Further, in the data set on HeLa cells, the “effect on α-tubulin acetylation (immunofluorescence)” value is “substantially strong effect on tubulin acetylation”.

In data set [1], `O=C(NO)c1ccc(CN(Cc2cccnc2)S(=O)(=O)c2cc(F)c(F)c(F)c2F)cc1` [Compound I-18, N-hydroxy-4-((2,3,4,5-tetrafluoro-N-(pyridin-3-ylmethyl)phenylsulfonamido)methyl)benzamide] returned a half-life of 1.82 h. Moreover, the “Remaining Percentage (%) 0 min” value in data set [1] (0 min) was found to be 100%. In addition, the “Remaining Percentage (%) 15 min” value in data set [1] (15 min) amounted to 96.3%. In addition, the “Remaining Percentage (%) 30 min” value in data set [1] (30 min) came out at 63.0%. Moreover, the “Remaining Percentage (%) 45 min” value in data set [1] (45 min) is listed as 54.3%. In addition, the “Remaining Percentage (%) 60 min” value in data set [1] (60 min) was determined as 51.3%. Also, the “Remaining Percentage (%) 120 min” value in data set [1] (120 min) was determined as 50.1%. Moreover, the half-maximal inhibitory concentration (IC50) on HDAC7 was above 1000 nM; against HDAC6 (HDAC6, no preincubation), 4 nM. In the data set with panel of 97 kinases, the “inhibitory activity on a panel of 97 kinases” value is reported as “limited to no inhibitory activity”. For the same molecule, on HDAC6 (HDAC6), the affinity corresponds to a Ki of 1.4 nM.
